According to PubChem BioAssay (NCI):
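These data come from cells grown in 96-well plates and exposed to compound for 48 hours at five concentrations. GI50 is the concentration that inhibits growth by half. TGI: concentration producing complete growth inhibition.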

Legend:
Assay in all cases: inhibition of tumour cell growth, NCI panel, 48 h
[1] = system: K-562 leukemia
[2] = system: SR leukemia
[3] = system: HT29 colon
[4] = system: DU-145 prostate
[5] = system: MDA-MB-231 breast
[6] = system: ACHN renal
[7] = system: NCI-H522 lung
[8] = system: SF-268 CNS
[9] = system: KM12 colon
[10] = system: BT-549 breast
[11] = system: MALME-3M melanoma
[12] = system: M14 melanoma
[13] = system: UACC-257 melanoma
[14] = system: T-47D breast
[15] = system: MDA-MB-435
[16] = system: HCT-15 colon
[17] = system: SK-MEL-5 melanoma
[18] = system: HCC-2998 colon
[19] = system: OVCAR-4 ovarian
[20] = system: MCF7 breast
[21] = system: UACC-62 melanoma
[22] = system: LOX IMVI melanoma
[23] = system: SW-620 colon
[24] = system: OVCAR-8 ovarian
[25] = system: NCI-H460 lung
[26] = system: IGROV1 ovarian
[27] = system: SNB-19 CNS
[28] = system: HL-60(TB) leukemia
[29] = system: CAKI-1 renal
[30] = system: TK-10 renal
[31] = system: SF-539 CNS
[32] = system: SF-295 CNS
[33] = system: NCI/ADR-RES ovarian
[34] = system: RXF 393 renal
[35] = system: SK-MEL-2 melanoma
[36] = system: HOP-92 NSCLC
[37] = system: COLO 205 colon
[38] = system: U251 CNS
[39] = system: A498 renal
[40] = system: SK-MEL-28 melanoma
[41] = system: HOP-62 NSCLC
[42] = system: A549 NSCLC
[43] = system: NCI-H226 lung
[44] = system: CCRF-CEM leukemia
[45] = system: EKVX NSCLC
[46] = system: NCI-H23 lung
[47] = system: HS 578T breast
[48] = system: SK-OV-3 ovarian
[49] = system: MOLT-4 leukemia
[50] = system: PC-3 prostate
[51] = system: RPMI-8226 leukemia
[52] = system: UO-31 renal
[53] = system: 786-0 renal
[54] = system: SN12C renal
[55] = system: SNB-75 CNS
[56] = system: OVCAR-5 ovarian
[57] = system: HCT-116 colon

## CC[C@]12CC(C(=O)OC)=C3Nc4ccccc4[C@@]34CCN(C14)[C@@H]1c3cc4c(cc3O[C@@H]1[C@H]2O)NC1=C(C(=O)OC)C[C@@]2(CC)C3N(CC[C@@]143)C[C@H]1O[C@H]12 (some centres not stated)
[1]
  GI50: 220 nM
  TGI: > 50000 nM
[2]
  GI50: 183 nM
  TGI: > 50000 nM
[3]
  GI50: 226 nM
  TGI: > 25400 nM
[4]
  GI50: 1850 nM
  TGI: > 50000 nM
[5]
  GI50: 311 nM
  TGI: > 50000 nM
[6]
  GI50: 320 nM
  TGI: 5650 nM
[7]
  GI50: 224 nM
  TGI: 2930 nM
[8]
  GI50: 1270 nM
  TGI: > 50000 nM
[9]
  GI50: 636 nM
  TGI: > 50000 nM
[10]
  GI50: 889 nM
  TGI: 8260 nM
[11]
  GI50: 504 nM
  TGI: 21000 nM
[12]
  GI50: 423 nM
  TGI: > 20600 nM
[13]
  GI50: 363 nM
  TGI: 10200 nM
[14]
  GI50: 616 nM
  TGI: > 50000 nM
[15]
  GI50: 370 nM
  TGI: 8770 nM
[16]
  GI50: 160 nM
  TGI: 6400 nM
[17]
  GI50: 583 nM
  TGI: 1320 nM
[18]
  GI50: 492 nM
  TGI: 1700 nM
[19]
  GI50: 548 nM
  TGI: > 50000 nM
[20]
  GI50: 109 nM
  TGI: > 50000 nM
[21]
  GI50: 89.5 nM
  TGI: 1180 nM
[22]
  GI50: 167 nM
  TGI: 721 nM
[23]
  GI50: 840 nM
  TGI: > 20700 nM
[24]
  GI50: 480 nM
  TGI: > 50000 nM
[25]
  GI50: 812 nM
  TGI: > 30700 nM
[26]
  GI50: 349 nM
  TGI: > 50000 nM
[27]
  GI50: 443 nM
  TGI: > 50000 nM
[28]
  GI50: 86.2 nM
  TGI: > 50000 nM
[29]
  GI50: 122 nM
  TGI: > 20400 nM
[30]
  GI50: 130 nM
  TGI: 3060 nM
[31]
  GI50: 417 nM
  TGI: > 50000 nM
[32]
  GI50: 317 nM
  TGI: > 50000 nM
[33]
  GI50: 290 nM
  TGI: > 50000 nM
[34]
  GI50: 483 nM
  TGI: 1900 nM
[35]
  GI50: 537 nM
  TGI: 5040 nM
[36]
  GI50: 134 nM
  TGI: 2070 nM
[37]
  GI50: 278 nM
  TGI: 1010 nM
[38]
  GI50: 738 nM
  TGI: 4720 nM
[39]
  GI50: 193 nM
  TGI: 1160 nM
[40]
  GI50: 974 nM
  TGI: > 50000 nM
[41]
  GI50: 201 nM
  TGI: > 50000 nM
[42]
  GI50: 510 nM
  TGI: > 44400 nM
[43]
  GI50: 509 nM
  TGI: > 11300 nM
[44]
  GI50: 590 nM
  TGI: > 50000 nM
[45]
  GI50: 600 nM
  TGI: > 50000 nM
[46]
  GI50: 632 nM
  TGI: > 36200 nM
[47]
  GI50: 337 nM
  TGI: > 50000 nM
[48]
  GI50: 296 nM
[49]
  GI50: 912 nM
  TGI: > 50000 nM
[50]
  GI50: 403 nM
  TGI: > 50000 nM
[51]
  GI50: 185 nM
  TGI: 1440 nM
[52]
  GI50: 148 nM
  TGI: > 50000 nM
[53]
  GI50: 274 nM
  TGI: > 50000 nM
[54]
  GI50: 641 nM
  TGI: > 50000 nM
[55]
  GI50: 97.2 nM
[56]
  GI50: 614 nM
  TGI: > 50000 nM
[57]
  GI50: 367 nM
  TGI: 2840 nM
